Test results as given in patent US4015974A, “Amido phosphorothiolates” (priority 1972, dated 1977).

Columns and labels:
Type in all cases: in vivo
radish = assay: Pre-emergence application, herbicidal effect on radish (Table 1); set-up: key: 0: not damaged; 5: completely killed; conditions: 20 days after application, score 0-5
Procedure, shortened: (§1)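 Steps: sow seeds individually in pots about 10 cm across; cover with soil; apply test compound as water-diluted wettable powder to the soil; grow in greenhouse; rate herbicidal effect at day 20 on a 0–5 scale (5 = completely killed).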

[1] = test system: broad-leaved weeds, e.g., monochoria, false pimpernel and toothcup; assay: Water application, herbicidal effect on broad-leaved weeds (Table 2); set-up: key: 0: not damaged; 5: completely killed; conditions: 25 days, score 0-5
Procedure, shortened: (§2)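 Flooded paddy soil, 3-leaf rice transplants, sown barnyard grass, spontaneous broadleaf weeds; WP formulation, water-lodged soil application; 0–5 visual rating, day 25.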

[2] = test system: barnyard grass (Echinochloa crus-galli); assay: Pre-emergence application, herbicidal effect on barnyard grass (Table 1); set-up: key: 0: not damaged; 5: completely killed; conditions: 20 days after application, score 0-5
Procedure, shortened: as §1

[3] = test system: redroot pigweed (Amaranthus retroflexus); assay: Pre-emergence application, herbicidal effect on redroot pigweed (Table 1); set-up: key: 0: not damaged; 5: completely killed; conditions: 20 days after application, score 0-5
Procedure, shortened: as §1

[4] = test system: large crabgrass (Digitaria sanguinalis); assay: Pre-emergence application, herbicidal effect on large crabgrass (Table 1); set-up: key: 0: not damaged; 5: completely killed; conditions: 20 days after application, score 0-5
Procedure, shortened: as §1

[5] = test system: barnyard grass (Echinochloa crus-galli); assay: Water application, herbicidal effect on barnyard grass (Table 2); set-up: key: 0: not damaged; 5: completely killed; conditions: 25 days, score 0-5
Procedure, shortened: as §2

[6] = test system: common purslane (Portulaca oleracea); assay: Pre-emergence application, herbicidal effect on common purslane (Table 1); set-up: key: 0: not damaged; 5: completely killed; conditions: 20 days after application, score 0-5
Procedure, shortened: as §1

rice = assay: Water application, phytotoxicity on rice (Table 2); set-up: key: 0: no effect; 1: very slightly affected; 2: slightly affected; 3: moderately affected; 4: considerably affected; 5: completely killed; conditions: 25 days, score 0-5
Procedure, shortened: as §2

[7] = test system: barnyard grass (Echinochloa crus-galli); assay: Water application, herbicidal effect on barnyard grass (Table 2); set-up: key: 0: no effect; 1: very slightly affected; 2: slightly affected; 3: moderately affected; 4: considerably affected; 5: completely killed; conditions: 25 days, score 0-5
Excerpt: Wagner pots of 14 cm. in diameter, which had been packed with 1.5 kg. of paddy field soil, were brought into the state of paddy fields. To the pots were transplanted rice seedlings at the 3-leave stage. Further, seeds of barnyard grass (Echinochloa crus-galli) were sowed in the pots and required amounts of test compounds were applied to the soil under water lodged condition. 25 days after application, the degrees of herbicidal activity and phytotoxity were investigated on above-mentioned plants which had been transplanted and sowed, and on broad-leaved weeds, e.g., monochoria (Monochoria viaginalis Presl.), false pimpernel (Linderna pyxidaria) and toothcup (Rotala indica Koehue), which had been spontaneously germinated. The test compounds were used in the form of wettable powder. The herbicidal effects and the phytotoxity were evaluated as follows by the numerals ranging from 0 to 5.

[8] = test system: common lambsquarter (Chenopodium album); assay: Pre-emergence application, herbicidal effect on common lambsquarter (Table 1); set-up: key: 0: not damaged; 5: completely killed; conditions: 20 days after application, score 0-5
Procedure, shortened: as §1

[9] = test system: tobacco cut worm (Spondoptera litura); assay: Lethal effect on tobacco cut worm (Table 5); conditions: tobacco cutworm, larvae on chinese cabbage leaves, 48 h
Experimental: The present compounds of an emulsifiable concentrate type were applied to leaves of chinese cabbage in the form of an 1000 fold dilute solution. After air-drying, third to fourth instar larvae of tobacco cut worm were released and after 48 hours the death and alive were observed.

[10] = test system: broad-leaved weeds, e.g., monochoria, false pimpernel and toothcup; assay: Water application, herbicidal effect on broad-leaved weeds (Table 2); set-up: key: 0: no effect; 1: very slightly affected; 2: slightly affected; 3: moderately affected; 4: considerably affected; 5: completely killed; conditions: 25 days, score 0-5
Procedure, shortened: as §2

SMILES | Herbicidal effect, radish (radish; 10 g./a.) | Herbicidal effect, radish (radish; 20 g./a.) | Herbicidal effect, radish (radish; 40 g./a.) | Herbicidal effects, broad-leaved weeds ([1]; 10 g/a) | Herbicidal effects, broad-leaved weeds ([1]; 20 g/a) | Herbicidal effects, broad-leaved weeds ([1]; 40 g/a) | Herbicidal effect, barnyard grass ([2]; 10 g./a.) | Herbicidal effect, barnyard grass ([2]; 20 g./a.) | Herbicidal effect, barnyard grass ([2]; 40 g./a.) | Herbicidal effect, redroot pigweed ([3]; 10 g./a.) | Herbicidal effect, redroot pigweed ([3]; 20 g./a.) | Herbicidal effect, redroot pigweed ([3]; 40 g./a.) | Herbicidal effect, large crabgrass ([4]; 20 g./a.) | Herbicidal effect, large crabgrass ([4]; 40 g./a.) | Herbicidal effect, common purslane ([6]; 20 g./a.) | Herbicidal effect, common purslane ([6]; 40 g./a.) | Phytotoxicity on rice (rice; 20 g/a) | Phytotoxicity on rice (rice; 40 g/a) | Herbicidal effect, common lambsquarter ([8]; 20 g./a.) | Herbicidal effect, common lambsquarter ([8]; 40 g./a.) | also measured
CCOP(=O)(SCCCC(C)C)SCC(=O)N1CCCCC1CC (stereo not shown) [Compound 80] | 0 | 0 | 0 | 5 | 5 | 5 | 4 | 5 | 5 | 3 | 4 | 5 | 5 | 5 | 4 | 5 | 0 | 2 | 4 | 5 | Herbicidal effect, large crabgrass ([4]; 10 g./a.): 5; Herbicidal effects, barnyard grass ([5]; 20 g/a): 5; Herbicidal effects, barnyard grass ([5]; 40 g/a): 5; Herbicidal effect, common purslane ([6]; 10 g./a.): 3; Phytotoxicity on rice (rice; 10 g/a): 0; Herbicidal effects, barnyard grass ([7]; 10 g/a): 4; Herbicidal effect, common lambsquarter ([8]; 10 g./a.): 3
CCCSP(=O)(OCC)SCC(=O)N1CCCC(C)C1 (stereo not shown) [Compound 13] | 0 | 0 | 0 | 5 | 5 | 5 | 5 | 5 | 5 | 4 | 5 | 5 | 5 | 5 | 5 | 5 | 0 | 0 | 5 | 5 | Herbicidal effect, large crabgrass ([4]; 10 g./a.): 5; Herbicidal effects, barnyard grass ([5]; 10 g/a): 5; Herbicidal effects, barnyard grass ([5]; 20 g/a): 5; Herbicidal effects, barnyard grass ([5]; 40 g/a): 5; Herbicidal effect, common purslane ([6]; 10 g./a.): 4; Phytotoxicity on rice (rice; 10 g/a): 0; Herbicidal effect, common lambsquarter ([8]; 10 g./a.): 4; Mortality [9]: 73.3%
Oc1c(Cl)c(Cl)c(Cl)c(Cl)c1Cl [PCP, reference compound] |  |  |  |  |  |  |  |  |  |  |  |  |  |  |  |  |  |  |  |  | Herbicidal effect, radish (radish; 50 g./a.): 1; Herbicidal effect, radish (radish; 100 g./a.): 4; Herbicidal effects, broad-leaved weeds ([1]; 50 g/a): 5; Herbicidal effects, broad-leaved weeds ([1]; 100 g/a): 5; Herbicidal effect, barnyard grass ([2]; 50 g./a.): 2; Herbicidal effect, barnyard grass ([2]; 100 g./a.): 3; Herbicidal effect, redroot pigweed ([3]; 50 g./a.): 2; Herbicidal effect, redroot pigweed ([3]; 100 g./a.): 4; Herbicidal effect, large crabgrass ([4]; 50 g./a.): 2; Herbicidal effect, large crabgrass ([4]; 100 g./a.): 4; Herbicidal effects, barnyard grass ([5]; 100 g/a): 5; Herbicidal effect, common purslane ([6]; 50 g./a.): 2; Herbicidal effect, common purslane ([6]; 100 g./a.): 4; Phytotoxicity on rice (rice; 50 g/a): 2; Phytotoxicity on rice (rice; 100 g/a): 3; Herbicidal effects, barnyard grass ([7]; 50 g/a): 4; Herbicidal effect, common lambsquarter ([8]; 50 g./a.): 2; Herbicidal effect, common lambsquarter ([8]; 100 g./a.): 4
CCOP(=O)(SCCc1ccccc1)SCC(=O)N1CCCCC1C (stereo not shown) [Compound 63] | 0 | 0 | 0 | 5 | 5 | 5 | 5 | 5 | 5 | 4 | 5 | 5 | 5 | 5 | 5 | 5 | 0 | 0 | 4 | 5 | Herbicidal effect, large crabgrass ([4]; 10 g./a.): 4; Herbicidal effects, barnyard grass ([5]; 20 g/a): 5; Herbicidal effects, barnyard grass ([5]; 40 g/a): 5; Herbicidal effect, common purslane ([6]; 10 g./a.): 4; Phytotoxicity on rice (rice; 10 g/a): 0; Herbicidal effects, barnyard grass ([7]; 10 g/a): 4; Herbicidal effect, common lambsquarter ([8]; 10 g./a.): 4
COP(=S)(NC(C)C)Oc1ccc(Cl)cc1Cl (stereo not shown) [Zytron, reference compound] |  | 0 | 0 |  |  |  |  | 3 | 4 |  | 0 | 1 | 1 | 3 | 1 | 2 | 0 | 0 | 0 | 2 | Herbicidal effects, broad-leaved weeds ([10]; 20 g/a): 2; Herbicidal effects, broad-leaved weeds ([10]; 40 g/a): 3; Herbicidal effects, barnyard grass ([7]; 20 g/a): 1; Herbicidal effects, barnyard grass ([7]; 40 g/a): 3
